In experiment [1] the target is Tumour suppressor protein p53/Mdm4 (Homo sapiens, UniProt O15151). Briefly: Inhibition of MDM4/p53 (unknown origin) interaction by fluorescence polarization assay. The format is protein assay. For orientation: Polarisation of emitted light reports the rotation of a fluorescent probe.
Experiment [2] has as its target Cellular tumor antigen p53 (Homo sapiens) (UniProt P04637). Put plainly: Activation of p53 pathway in human MOLM-13 cells assessed as increase in p53 level incubated for 24 hrs by Western blot analysis. The format is cell-based. As to conditions: filed as activator, dose 0.038-0.6 µM.
For experiment [3] the target is unchanged. Put plainly: Activation of p53 pathway in human MOLM-13 cells assessed as increase in p21 level incubated for 24 hrs by Western blot analysis. The class given is cell-based. As to conditions: filed as activator, dose 0.038-0.6 µM. On the technique in general: In western blotting, separated proteins are transferred to a membrane and probed.
Experiment [4] shares this target. Briefly: Activation of p53 pathway in human MOLM-13 cells assessed as increase in PUMA mRNA level incubated for 24 hrs by qPCR analysis. The class given is cell-based. As to conditions: filed as activator, dose 0.038-0.6 µM. On the technique in general: Real-time PCR tracks product formation cycle by cycle.
For experiment [5] the target is unchanged. Briefly: Activation of p53 pathway in human MOLM-13 cells assessed as increase in BAX mRNA level incubated for 24 hrs by qPCR analysis. The class given is cell-based. As to conditions: filed as activator, dose 0.038-0.6 µM.
For experiment [6], the system named is MOLM-13. Briefly: Induction of apoptosis in human MOLM-13 cells assessed as viable cells at 0.3 uM incubated for 24 hrs by Annexin V-FITC/PI staining based flow cytometry (reference value: 95.1 %). The class given is functional. As to conditions: read-out: Activity.
The test system of experiment [7] is MOLM-13. Briefly: Induction of apoptosis in human MOLM-13 cells assessed as necrotic cells at 0.3 uM incubated for 24 hrs by Annexin V-FITC/PI staining based flow cytometry (reference value: 0.020 %). The class given is functional.
Experiment [8] concerns MOLM-13. Put plainly: Induction of apoptosis in human MOLM-13 cells assessed as early apoptotic cells at 0.9 uM incubated for 24 hrs by Annexin V-FITC/PI staining based flow cytometry (reference value: 4.44 %). The class given is functional.
The subject of experiment [9] is MOLM-13. Briefly: Induction of apoptosis in human MOLM-13 cells assessed as necrotic cells at 0.9 uM incubated for 24 hrs by Annexin V-FITC/PI staining based flow cytometry (reference value: 0.020 %). The class given is functional.
Experiment [10] relates to MOLM-13. Briefly: Induction of apoptosis in human MOLM-13 cells assessed as necrotic cells at 2.7 uM incubated for 24 hrs by Annexin V-FITC/PI staining based flow cytometry (reference value: 0.020 %). The class given is functional.
In experiment [11] the test system is MOLM-13. Briefly: Induction of apoptosis in human MOLM-13 cells assessed as viable cells at 8.1 uM incubated for 24 hrs by Annexin V-FITC/PI staining based flow cytometry (reference value: 95.1 %). The format is functional. As to conditions: read-out: Activity.
In experiment [12] the test system is MOLM-13. Put plainly: Induction of apoptosis in human MOLM-13 cells assessed as necrotic cells at 24.3 uM incubated for 24 hrs by Annexin V-FITC/PI staining based flow cytometry (reference value: 0.020 %). The format is functional.
Experiment [13] concerns the target Cellular tumor antigen p53 (Homo sapiens) (UniProt P04637). Briefly: Activation of p53 pathway in human HCT-116 cells assessed as increase in p53 level at 1 uM incubated for 24 hrs by Western blot analysis. The class given is cell-based. As to conditions: filed as activator.
Experiment [14] has the same target. Put plainly: Activation of p53 pathway in human HCT-116 cells assessed as increase in MDM2 level at 1 uM incubated for 24 hrs by Western blot analysis. The format is cell-based. As to conditions: filed as activator.
Experiment [15] shares this target. Briefly: Activation of p53 pathway in human A549 cells assessed as increase in p53 level at 1 uM incubated for 24 hrs by Western blot analysis. The class given is cell-based. As to conditions: filed as activator.
The target is the same in experiment [16]. Put plainly: Activation of p53 pathway in human A549 cells assessed as increase in MDM2 level at 1 uM incubated for 24 hrs by Western blot analysis. The format is cell-based. As to conditions: filed as activator.
Experiment [17] relates to HCT-116. Briefly: cells. As to conditions: Homo sapiens, HCT-116, 96 h.

Activity calls are given as the source filed them. No cut-off for these calls is given here. A value given as a limit tells only on which side of the number the result lay.

In general, Ki refers to a measure of affinity in units of concentration, obtained from inhibition or displacement. Broadly, the IC50 is the concentration at which inhibition is half-maximal. Read a low IC50 as higher potency.

Sequence of Cellular tumor antigen p53 (Homo sapiens) (P04637 whole entry, looked up): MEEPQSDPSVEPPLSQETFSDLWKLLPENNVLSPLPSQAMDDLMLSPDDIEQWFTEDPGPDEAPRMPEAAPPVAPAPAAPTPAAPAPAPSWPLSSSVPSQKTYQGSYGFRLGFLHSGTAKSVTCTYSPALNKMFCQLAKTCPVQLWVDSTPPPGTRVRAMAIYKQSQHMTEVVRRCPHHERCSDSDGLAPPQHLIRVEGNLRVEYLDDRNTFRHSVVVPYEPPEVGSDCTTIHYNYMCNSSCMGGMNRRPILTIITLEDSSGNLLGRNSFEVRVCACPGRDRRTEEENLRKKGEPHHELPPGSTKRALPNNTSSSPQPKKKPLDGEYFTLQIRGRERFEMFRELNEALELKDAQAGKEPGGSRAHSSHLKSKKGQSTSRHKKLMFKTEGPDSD
Sequence of Tumour suppressor protein p53/Mdm4 (P04637 whole entry): as the sequence (P04637 whole entry, looked up) above
Sequence of Tumour suppressor protein p53/Mdm4 (O15151 whole entry): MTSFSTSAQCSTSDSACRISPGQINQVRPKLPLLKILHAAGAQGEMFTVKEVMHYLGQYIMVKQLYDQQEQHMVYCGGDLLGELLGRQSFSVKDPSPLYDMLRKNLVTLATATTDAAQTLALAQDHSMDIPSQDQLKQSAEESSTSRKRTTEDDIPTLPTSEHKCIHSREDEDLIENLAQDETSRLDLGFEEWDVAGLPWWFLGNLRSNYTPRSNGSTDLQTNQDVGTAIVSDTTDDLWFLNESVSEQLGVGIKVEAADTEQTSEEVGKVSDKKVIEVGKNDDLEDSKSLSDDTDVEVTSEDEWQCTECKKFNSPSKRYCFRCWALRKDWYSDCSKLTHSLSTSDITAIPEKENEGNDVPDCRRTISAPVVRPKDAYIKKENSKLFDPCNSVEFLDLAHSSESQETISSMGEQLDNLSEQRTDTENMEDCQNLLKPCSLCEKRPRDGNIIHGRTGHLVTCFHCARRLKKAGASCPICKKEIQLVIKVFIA

Molecule `COc1cc(C(=O)O)ccc1N1CN2[C@@H](CC(C)(C)C)[C@@]3(CNc4cc(Cl)ccc43)[C@@H](c3cccc(Cl)c3)[C@@H]2C1=O` yielded an inhibitory constant (Ki) in experiment [1] greater than 27000 nM. In addition, the Activity result in experiment [2] was “Dose-Dependent Effect”; in experiment [3] it was “Dose-Dependent Effect”; in experiment [4], “Dose-Dependent Effect”; in [5] it was “Dose-Dependent Effect”; in [7] it was 0.179%; in [8], 48.8%. The figures for the Activity in [9], in [10] and in experiment [12] were 0.119%, 0.125% and 0.047%, respectively. Moreover, the viability at 0.3 µM in experiment [6] is 74.5%. For the same molecule, the viability at 8.1 µM in experiment [11] worked out at 27.4%. In addition, the outcome in experiment [13], in experiment [14], in experiment [15] and in experiment [16] was Active. The same molecule had an IC50 in [17] of 28.1 nM.
